Reference: patent US5591758A, “Organic nitrates, processes for their preparation and their use in the treatment of cardiovascular diseases” (Laboratoires Hoechst, SA, priority 1991, dated 1997)
Where a name gives a salt, the structure may show the parent alone.

Tests used:
[1] = tested on: anesthetised pigs; test: Haemodynamic effects on anesthetised pigs; format: in vivo, pigs ("German land" race)
Method: Haemodynamic effects of the compounds according to the invention on anesthetised pigs or dogs
Pigs are of "German land" race (20-26 kg) and are used after fasting overnight.
In the case of pigs, sedation, analgesia and anesthesia are induced by ketamine HCl (20 mg/kg i.m.), methonidate HCl (10 mg/kg i.m.), xylacine HCl (3 mg/kg i.m.) and sodium pentobarbitol (25-30 mg/kg as bolus i.v. or 0.16 mg/kg/min as i.v. perfusion).
The pigs or dogs are placed under artificial respiration in ambient air. Analysis of the blood gases (pO2, pCO2) is carried out at regular intervals and oxygen can be supplied via the respirator, if necessary.
The haemodynamic parameters recorded include the left ventricular pressure (LVP; Millar PC350 Tip catheter inserted via the carotid artery), systemic blood pressure (BPs, BPd; full catheter in a femoral artery), the end pressure of the left ventricular diastole (LVEDP), the ventricular contractility (LVPdp/dtmax) and the heart rate (HR).
The haemodynamic variables are recorded continuously for 1 to 3 hours, as a function of the period of action of the compound.
The effects of the compounds studied are shown as the absolute difference with respect to the base value (bv) measured before administration of the compounds and are shown in Table VII (a,b,c).
An antianginal activity is estimated by a fall in the BPs and the LVEDP (fall in venous return).

[2] = tested on: thoracic aorta; test: Vasorelaxant effect on isolated vessels (rat thoracic aorta rings without endothelium, precontracted with noradrenalin); design: species or system Wistar rats
Outline: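 Endothelium-denuded thoracic aorta rings from Wistar rats, held in Krebs-Ringer buffer (pH 7.4, 37 °C, 95% O2/5% CO2) under isometric tension and precontracted with 10^-7 M noradrenalin, received cumulative compound (10^-8 to 10^-4 M). Maximum relaxation given as percent; IC50 calculated when relaxation exceeded 50%.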

SMILES	BPs (min), period of action ([1]; pigs, 3,0 mg/kg i.d.) [min]	BPs, difference to base value ([1]; pigs, 3,0 mg/kg i.d.) [mmHg]	LVRDP (min), period of action ([1]; pigs, 3,0 mg/kg i.d.) [min]	LVRDP, difference to base value ([1]; pigs, 3,0 mg/kg i.d.)	Emax ([2]; Rattus norvegicus, maximum inhibition of noradrenalin effect, 10^-8 to 10^-4 M substance, read-out: Maximum Relaxation) [%]	IC50 ([2]; rat aorta, 10^-7 M noradrenalin contraction) [µM]	BPs, difference to base value ([1]; pigs, 1,0 mg/kg i.d.) [mmHg]	LVRDP, difference to base value ([1]; pigs, 1,0 mg/kg i.d.) [mmHg]	BPs (min), period of action ([1]; pigs, 10,0 mg/kg i.d.) [min]	BPs, difference to base value ([1]; pigs, 10,0 mg/kg i.d.) [mmHg]	LVRDP (min), period of action ([1]; pigs, 10,0 mg/kg i.d.) [min]	LVRDP, difference to base value ([1]; pigs, 10,0 mg/kg i.d.)
O=C(CNC(=O)[C@@H]1CSCN1)N[C@H]1CO[C@H]2[C@@H]1OC[C@@H]2O[N+](=O)[O-] [Compound 46, 5-[[2-[[(4-L-Thiazolidinyl)carbonyl]amino]-1oxoethyl]amino]-5-deoxy-2-O-nitro-1,4:3,6-dianhydro-L-iditol monohydrochloride]	> 120	-30	> 120	-5,0 mmHg	50	100						
O=[N+]([O-])O[C@@H]1CO[C@H]2[C@@H]1OC[C@@H]2O [IS-5-MN, isosorbide 5-mononitrate, reference compound]	60	-5	60	-3 mmHg			0	0	> 120	-26	> 120	-3,0 mmHg
